Literature values in patent publication US7981858B1, “Methods of using zinc containing compounds to improve ocular health” (Alcon, Inc., priority 2004, dated 2011).

Tests used:
[1] = 80 mg of zinc, versus placebo
[2] = about 200 mg dosage of zinc per day

[Zn] [zinc]
retarding macular degeneration changes [1]: significantly better than placebo | tolerability [2]: well tolerated | side effects ([2]; anemia attributable to copper deficiency): potential side effects such as anemia
